Laboratory results taken from patent US10619138B2, “Herbicide-resistant hydroxyphenylpyruvate dioxygenases” (BASF SE, priority 2013, dated 2020).

Legend:
[1] = tested on: Scenedesmus HPPD (SEQ ID NO: 4); experiment: In vitro HPPD activity assay, tolerance index; format: biochemical, Scenedesmus obliquus; conditions: normalized on Arabidopsis wild-type HPPD
Procedure: (§1) The activity assay for HPPD is based on the analysis of homogentisic acid by reversed phase HPLC.
(§2) The assay mixture can contain 150 mM potassium phosphate buffer pH 7.0, 50 mM L-ascorbic acid, 100 μM Catalase (Sigma-Aldrich), 1 μM FeSO4 and 0.2 units of purified HPPD enzyme in a total volume of 505 μl. 1 unit is defined as the amount of enzyme that is required to produce 1 nmol of HGA per minute at 20° C.
(§3) The reaction is allowed to proceed for 45 min at room temperature. The reaction is stopped by the addition of 50 μl of 4.5 M phosphoric acid. The sample is filtered using a […] pore size PVDF filtration device.
(§4) 5 μl of the cleared sample is analyzed on an UPLC HSS T3 column (particle size 1.8 μm, dimensions 2.1×50 mm; Waters) by isocratic elution using 90% 20 mM NaH2PO4 pH 2.2, 10% methanol (v/v).
(§5) HGA is detected electrochemically at 750 mV (mode: DC; polarity: positive) and quantified by integrating peak areas (Empower software; Waters).
(§6) Inhibitors are dissolved in DMSO (dimethylsulfoxide) to a concentration of 0.5 mM. From this stock solution serial five-fold dilutions are prepared in DMSO, which are used in the assay. The respective inhibitor solution accounts for 1% of the assay volume. Thus, final inhibitor concentrations range from 5 μM to 320 pM, respectively. Activities are normalized by setting the uninhibited enzyme activity to 100%. IC50 values are calculated using non-linear regression.
(§7) Using methods which are described in the above examples or well known in the art, purified, recombinant wildtype HPPD enzymes are characterized with respect to their kinetic properties and sensitivity towards HPPD inhibiting herbicides. Apparent michaelis constants (Km) and maximal reaction velocities (Vmax) are calculated by non-linear regression with the software GraphPad Prism 5 (GraphPad Software, La Jolla, USA) using a substrate inhibition model. […] Weighted means (by standard error) of Km and IC50 values are calculated from at least three independent experiments. The Cheng-Prusoff equation for competitive inhibition (Cheng, Y. C.; Prusoff, W. H. Biochem Pharmacol 1973, 22, 3099-3108) is used to calculate dissociation constants (Ki).
(§8) Field performance of the HPPD enzyme, which is used as a herbicide tolerance trait may depend not only on its lack of sensitivity towards HPPD inhibiting herbicides but also on its activity. To assess the potential performance of a herbicide tolerance trait a tolerance index (TI) is calculated using the following formula: […]
(§9) Easy comparison and ranking of each trait is enabled by normalizing tolerance indexes on Arabidopsis wild-type HPPD.

[2] = tested on: Mucilaginibacter HPPD (SEQ ID NO: 28); experiment: In vitro HPPD activity assay, tolerance index; format: biochemical, Mucilaginibacter paludis; conditions: normalized on Arabidopsis wild-type HPPD
Procedure: as §1, §2, §3, §4, §5, §6, §7, §8, §9

[3] = tested on: Geodermatophilus HPPD (SEQ ID NO: 32); experiment: In vitro HPPD activity assay, tolerance index; format: biochemical, Geodermatophilus obscurus; conditions: normalized on Arabidopsis wild-type HPPD
Procedure: as §1, §2, §3, §4, §5, §6, §7, §8, §9

[4] = tested on: Herpetosiphon HPPD (SEQ ID NO: 26); experiment: In vitro HPPD activity assay, tolerance index; format: biochemical, Herpetosiphon aurantiacus; conditions: normalized on Arabidopsis wild-type HPPD
Procedure: as §1, §2, §3, §4, §5, §6, §7, §8, §9

[5] = tested on: Pontibacter HPPD (SEQ ID NO: 16); experiment: In vitro HPPD activity assay, tolerance index; format: biochemical, Pontibacter sp.; conditions: normalized on Arabidopsis wild-type HPPD
Procedure: as §1, §2, §3, §4, §5, §6, §7, §8, §9

[6] = tested on: Belliella HPPD (SEQ ID NO: 12); experiment: In vitro HPPD activity assay, tolerance index; format: biochemical, Belliella baltica; conditions: normalized on Arabidopsis wild-type HPPD
Procedure: as §1, §2, §3, §4, §5, §6, §7, §8, §9

[7] = tested on: Microscilla HPPD (SEQ ID NO: 20); experiment: In vitro HPPD activity assay, tolerance index; format: biochemical, Microscilla marina; conditions: normalized on Arabidopsis wild-type HPPD
Procedure: as §1, §2, §3, §4, §5, §6, §7, §8, §9

[8] = target: T1, Arabidopsis HPPD (SEQ ID NO: 42) (Arabidopsis thaliana, UniProt P93836); experiment: In vitro HPPD activity assay (HGA by HPLC), wildtype enzyme characterization; format: biochemical; conditions: normalized on Arabidopsis wild-type HPPD; reference enzyme
T1 construct: Arabidopsis (42); His tag; made in house; host or cells: E. coli BL21 (DE3)
T1 sequence (P93836 1-445): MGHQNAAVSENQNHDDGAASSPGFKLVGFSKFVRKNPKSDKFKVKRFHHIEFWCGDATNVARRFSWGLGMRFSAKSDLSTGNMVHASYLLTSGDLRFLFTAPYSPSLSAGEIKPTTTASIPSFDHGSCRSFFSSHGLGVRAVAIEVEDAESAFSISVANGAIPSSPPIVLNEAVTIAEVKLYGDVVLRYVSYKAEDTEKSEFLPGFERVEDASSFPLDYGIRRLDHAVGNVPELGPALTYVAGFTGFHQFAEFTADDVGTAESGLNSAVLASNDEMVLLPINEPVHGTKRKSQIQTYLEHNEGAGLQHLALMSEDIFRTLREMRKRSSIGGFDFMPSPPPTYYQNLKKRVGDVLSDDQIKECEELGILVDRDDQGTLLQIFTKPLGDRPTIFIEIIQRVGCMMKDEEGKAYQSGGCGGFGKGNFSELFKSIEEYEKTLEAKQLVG
Procedure: as §1, §2, §3, §4, §5
as §6, with “Thus, final inhibitor concentrations range from 5 μM to 320 pM, respectively.” left out
as §7, with “experiments.” for “experiments. The Cheng-Prusoff equation for competitive inhibition (Cheng, Y. C.; Prusoff, W. H. Biochem Pharmacol 1973, 22, 3099-3108) is used to calculate dissociation constants (Ki).”
as §8, §9

[9] = tested on: Algoriphagus HPPD (SEQ ID NO: 22); experiment: In vitro HPPD activity assay, tolerance index; format: biochemical, Algoriphagus machipongonensis; conditions: normalized on Arabidopsis wild-type HPPD
Procedure: as §1, §2, §3, §4, §5, §6, §7, §8, §9

[10] = tested on: Nitritalea HPPD (SEQ ID NO: 14); experiment: In vitro HPPD activity assay, tolerance index; format: biochemical, Nitritalea halalkaliphila; conditions: normalized on Arabidopsis wild-type HPPD
Procedure: as §1, §2, §3, §4, §5, §6, §7, §8, §9

| SMILES | TI (normalized tolerance index) [1] | TI (normalized tolerance index) [2] | TI (normalized tolerance index) [3] | TI (normalized tolerance index) [4] | TI (normalized tolerance index) [5] | TI (normalized tolerance index) [6] | TI (normalized tolerance index) [7] | TI (normalized tolerance index) [8] | TI (normalized tolerance index) [9] | TI (normalized tolerance index) [10] |
| --- | --- | --- | --- | --- | --- | --- | --- | --- | --- | --- |
| COCCOCc1nc(C(F)(F)F)ccc1C(=O)C1=C(O)C2CCC(C2)C1=O (centres unmarked) [Inhibitor 3, 2-hydroxy-3-[2-(2-methoxyethoxymethyl)-6-(trifluoromethyl)pyridine-3-carbonyl]bicyclo[3.2.1]oct-2-en-4-one] | 0.9 | 6.9 | 7.4 | 2 | 1.7 | 10 | 6.7 | 1 | 29 | 1.1 |
| CCS(=O)(=O)c1cc(C(F)(F)F)ccc1C1=C(O)c2ncccc2C(C)(C)S1(=O)=O [Inhibitor 5, 7-[2-ethylsulfonyl-4-(trifluoromethyl)phenyl]-5,5-dimethyl-6,6-dioxo-thiopyrano[4,3-b]pyridin-8-ol] | 0.6 | 5.2 | 5.6 | 1 | 2.5 | 10.6 | 17.7 | 1 | 24.7 | 3.2 |
